From ChEMBL document CHEMBL5214948, “Boronic Acid: A Novel Pharmacophore Targeting Src Homology 2 (SH2) Domain of STAT3” (J Med Chem, 2022)

Columns and labels:
[1] = system: AGS; assay: Antiproliferative activity against human AGS cells assessed as reduction in cell viability incubated for 72 hrs by CCK-8 assay; type: functional, cell-based
[2] = system: MGC-803; assay: Antiproliferative activity against human MGC-803 cells assessed as reduction in cell viability measured after 72 hrs by CCK-8 assay; type: functional, cell-based; settings: MGC-803, 72 h

In the case of `C[C@H](C(=O)N(Cc1ccc(C2CCCCC2)cc1)c1ccc(B(O)O)cc1)N(C)S(=O)(=O)c1c(F)c(F)c(F)c(F)c1F`, the IC50 [1] is reported as 1720 nM and the IC50 [2] is reported as 3130 nM.
